From patent US20210179623A1, “NEW CHEMICAL COMPOUND CONTAINING ACTIVE ENANTIOMETER S-(-) KETOROLAC TROMETHAMINE FOR THE TREATMENT OF PAIN” (priority 2017, published 2021)
Read-outs that look alike come from different tables or passages of the source.

Assays:
[1] = tested on: gouty arthritis-type pain; test: PIFIR pain-induced functional impairment model in the rat; format: in vivo, male Wistar rats; conditions: for MAXIMUM EFFICACY (ABC: X ± E.E.): dose of each analgesic (mg/kg); for Emax reached in the temporal curve / latency in reaching the Emax in the temporal curve: highest doses; for RELATIVE EFFICACY: relative to maximum efficacy of rac-ketorolac
Source text: In order to determine and compare the antinociceptive effects of these analgesics the preclinical experimental model of PIFIR “pain-induced functional impairment model in the rat” was used.

rat population = conditions: rats, oral route; FIG. 7
[2] = cited from earlier work
plasmatic proteins = conditions: cited from earlier work
[3] = doses needed to generate 50% of the most effective effect, oral route

Molecule | effective dose 50 (ED50, 50% of its own maximum effect) ([1]; PIFIR model, rats, oral route, FIG. 6) | MAXIMUM EFFICACY (ABC: X ± E.E.) ([1]; PIFIR model, rats, oral route) | ED60 (mg/kg, oral route) (with regard to Emax: 324 au) ([1]; PIFIR model, rats) [mg/kg] | times more potent than acetylsalicylic acid [1, 3] [times] | times more potent than morphine [1, 3] [times] | times more potent than rac-ketorolac [1, 3] [times] | fixed effect 4 hours after administration ([1]; higher doses, oral route, 4 hours) | Emax reached in the temporal curve ([1]; oral route) | latency in reaching the Emax in the temporal curve ([1]; oral route) | lethal dose 50 (LD50) (rat population) | RELATIVE POTENCY (relative to 5-ketorolac) ([1]; PIFIR model, rats, oral route) | RELATIVE EFFICACY ([1]; PIFIR model, rats, oral route) | onset of the analgesic effects after administration ([2]; any presentation) [min] | excreted renally as a conjugated metabolite ([2]; in vivo) [%] | excreted renally as a hydroxylated metabolite ([2]; in vivo) [%] | excreted renally as the unaltered drug ([2]; in vivo) [%] | metabolized in the liver by conjugation ([2]; inactive metabolites) [%] | time of maximum level ([2]; intravenous and intramuscular use) | time of maximum level ([2]; oral administration, tablets or capsules) [h] | bonds with plasmatic proteins (plasmatic proteins) [%]
2-amino-2-hydroximethyl-1,3 propanediol (1:1) S-(−)-5-benzoyl-2,3-dihydro-1H-pyrrolizine-1-carboxylate [S-(−)-ketorolac tromethamine] | less than the rest of the active substances being studied | 310.5 ± 13.5 | 0.36 ± 1.0 | 1037 | 82 | 3.3 | the same as that exhibited for rac-ketorolac and by morphine but higher than that exhibited by acetylsalicylic acid | Emax similar to that exhibited by rac-ketorolac and morphine, but this Emax was higher than that exhibited by acetylsalicylic acid | latency similar to that exhibited by rac-ketorolac, but less than that exhibited by morphine | smaller than the acetylsalicylic acid, but larger than the one reported for rac-ketorolac and morphine | – | – | – | – | – | – | – | – | – | –
O=C(c1ccccc1)c1ccc2n1CCC2C(=O)O (racemic) [rac-ketorolac, ketorolac tromethamine] | – | 324.6 ± 7.8 | 1.19 ± 1.2 | – | – | – | – | – | – | – | −3.3 | 1.0 | 30 | 21.9 | 11.5 | 60.2 | 21 | first and second hour | 3 | 99
CC(=O)Oc1ccccc1C(=O)O [Acetylsalicylic Acid, acetylsalicylic acid] | – | 226.6 ± 11.7 | 373.3 ± 1.7 | – | – | – | – | smaller than those exhibited by the other analgesics | least latency in reaching its Emax | – | −1,036.9 | 0.70 | – | – | – | – | – | – | – | –
CN1CC[C@]23c4c5ccc(O)c4O[C@H]2[C@@H](O)C=C[C@H]3[C@H]1C5 [Morphine, morphine] | – | 310.8 ± 8.9 | 29.35 ± 1.1 | – | – | – | – | – | – | – | −81.5 | 1.0 | – | – | – | – | – | – | – | –
